Laboratory results taken from ChEMBL document CHEMBL1201861, “Genomics of Drug Sensitity in Cancer screening data, Wellcome Trust Sanger Institute”.

What was measured:
Assay in all cases: cells
COLO-741 = type: functional, cell-based; conditions: Homo sapiens
Description: SANGER: Inhibition of human COLO-741 cell growth in a cell viability assay.

COR-L105 = type: functional, cell-based; conditions: Homo sapiens;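 note: cell growth inhibition determined with a viability assay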
Description: SANGER: Inhibition of human COR-L105 cell growth in a cell viability assay.

Ca9-22 = type: functional, cell-based; conditions: Homo sapiens;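 note: growth inhibition of Ca9-22 cells, read out with a cell viability assay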
Description: SANGER: Inhibition of human Ca9-22 cell growth in a cell viability assay.

Capan-2 = type: functional, cell-based; conditions: Homo sapiens;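 note: Capan-2 cell growth inhibition, read out with a viability assay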
Description: SANGER: Inhibition of human Capan-2 cell growth in a cell viability assay.

ChaGo-K-1 = type: functional, cell-based; conditions: Homo sapiens;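 note: growth inhibition of ChaGo-K-1 cells, read out with a cell viability assay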
Description: SANGER: Inhibition of human ChaGo-K-1 cell growth in a cell viability assay.

D-336MG = type: functional, cell-based; conditions: Homo sapiens
Description: SANGER: Inhibition of human D-336MG cell growth in a cell viability assay.

DBTRG-05MG = type: functional, cell-based; conditions: Homo sapiens;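 note: cell viability assay measuring growth inhibition of human DBTRG-05MG cells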
Description: SANGER: Inhibition of human DBTRG-05MG cell growth in a cell viability assay.

FaDu = type: functional, cell-based; conditions: Homo sapiens;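 note: cell viability readout of growth inhibition in FaDu cells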
Description: SANGER: Inhibition of human FADU cell growth in a cell viability assay.

FTC-133 = type: functional, cell-based; conditions: Homo sapiens
GAMG = type: functional, cell-based; conditions: Homo sapiens;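 note: cell growth inhibition measured by a viability assay in the GAMG human cell line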
Description: SANGER: Inhibition of human GAMG cell growth in a cell viability assay.

GCT = type: functional, cell-based; conditions: Homo sapiens;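 note: GCT cell line proliferation inhibition, read out with a cell viability assay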
Description: SANGER: Inhibition of human GCT cell growth in a cell viability assay.

HCC1395 = type: functional, cell-based; conditions: Homo sapiens;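 note: growth inhibition of HCC1395 cells, read out by a cell viability assay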
Description: SANGER: Inhibition of human HCC1395 cell growth in a cell viability assay.

HCC1599 = type: functional, cell-based; conditions: Homo sapiens;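 note: growth inhibition of HCC1599 cells, read out in a cell viability assay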
Description: SANGER: Inhibition of human HCC1599 cell growth in a cell viability assay.

HCC1806 = type: functional, cell-based; conditions: Homo sapiens;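 note: growth inhibition of the cancer cell line, determined with a cell viability assay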
Description: SANGER: Inhibition of human HCC1806 cell growth in a cell viability assay.

HCC1937 = type: functional, cell-based; conditions: Homo sapiens;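 note: growth inhibition measured with a cell viability read-out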
Description: SANGER: Inhibition of human HCC1937 cell growth in a cell viability assay.

HGC-27 = type: functional, cell-based; conditions: Homo sapiens;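 note: growth inhibition of human HGC-27 cells, read out in a cell viability assay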
Description: SANGER: Inhibition of human HGC-27 cell growth in a cell viability assay.

HT-1080 = type: functional, cell-based; conditions: Homo sapiens
Description: SANGER: Inhibition of human HT-1080 cell growth in a cell viability assay.

HT1197 = type: functional, cell-based, HT-1197; conditions: Homo sapiens
Description: SANGER: Inhibition of human HT-1197 cell growth in a cell viability assay.

Hs-578T = type: functional, cell-based; conditions: Homo sapiens
Description: SANGER: Inhibition of human Hs-578-T cell growth in a cell viability assay.

IST-SL2 = type: functional, cell-based; conditions: Homo sapiens;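 note: growth inhibition of human IST-SL2 cells, read out by a cell viability assay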
Description: SANGER: Inhibition of human IST-SL2 cell growth in a cell viability assay.

KYSE-180 = type: functional, cell-based; conditions: Homo sapiens;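 note: growth inhibition of KYSE-180 cells, read out with a cell viability assay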
Description: SANGER: Inhibition of human KYSE-180 cell growth in a cell viability assay.

KYSE-70 cell line = type: functional, cell-based; conditions: Homo sapiens;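 note: cell viability assay read-out, with IC50 expressing suppression of KYSE-70 cell growth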
Description: SANGER: Inhibition of human KYSE-70 cell growth in a cell viability assay.

LB647-SCLC = type: functional, cell-based; conditions: Homo sapiens;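 note: cell growth inhibition, read out by a viability assay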
Description: SANGER: Inhibition of human LB647-SCLC cell growth in a cell viability assay.

LCLC-103H cell line = type: functional, cell-based; conditions: Homo sapiens
Description: SANGER: Inhibition of human LCLC-103H cell growth in a cell viability assay.

LCLC-97TM1 = type: functional, cell-based; conditions: Homo sapiens;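 note: cell viability assay measuring growth inhibition of human LCLC-97TM1 cells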
Description: SANGER: Inhibition of human LCLC-97TM1 cell growth in a cell viability assay.

LU-165 = type: functional, cell-based; conditions: Homo sapiens
Description: SANGER: Inhibition of human LU-165 cell growth in a cell viability assay.

LoVo = type: functional, cell-based; conditions: Homo sapiens;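 note: growth inhibition of human LoVo cells, read out with a cell viability assay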
Description: SANGER: Inhibition of human LoVo cell growth in a cell viability assay.

MC-CAR = type: functional, cell-based; conditions: Homo sapiens;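 note: growth inhibition of the human MC-CAR cell line, read out by a cell viability assay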
Description: SANGER: Inhibition of human MC-CAR cell growth in a cell viability assay.

MDA-MB-157 = type: functional, cell-based; conditions: Homo sapiens
Description: SANGER: Inhibition of human MDA-MB-157 cell growth in a cell viability assay.

MHH-ES-1 = type: functional, cell-based; conditions: Homo sapiens;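 note: cell growth inhibition measured by a cell viability assay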
Description: SANGER: Inhibition of human MHH-ES-1 cell growth in a cell viability assay.

MKN-45 = type: functional, cell-based; conditions: Homo sapiens;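 note: growth inhibition of human MKN-45 cells, measured with a cell viability assay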
Description: SANGER: Inhibition of human MKN45 cell growth in a cell viability assay.

MKN-7 = type: functional, cell-based; conditions: Homo sapiens;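 note: growth inhibition of MKN-7 cells, read out with a cell viability assay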
Description: SANGER: Inhibition of human MKN7 cell growth in a cell viability assay.

MONO-MAC-6 = type: functional, cell-based; conditions: Homo sapiens;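 note: cell viability assay measuring growth inhibition of human MONO-MAC-6 cells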
Description: SANGER: Inhibition of human MONO-MAC-6 cell growth in a cell viability assay.

MeWo = type: functional, cell-based; conditions: Homo sapiens;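 note: growth inhibition of MeWo cells, determined by a cell viability readout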
Description: SANGER: Inhibition of human Mewo cell growth in a cell viability assay.

NB12 = type: functional, cell-based; conditions: Homo sapiens;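 note: growth inhibition of human NB12 cells, read out by a cell viability assay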
Description: SANGER: Inhibition of human NB12 cell growth in a cell viability assay.

NCI-H1563 = type: functional, cell-based; conditions: Homo sapiens;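 note: growth inhibition of human NCI-H1563 cells, read out with a cell viability assay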
Description: SANGER: Inhibition of human NCI-H1563 cell growth in a cell viability assay.

NCI-H2171 = type: functional, cell-based; conditions: Homo sapiens;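 note: growth inhibition of human NCI-H2171 cells, read out by a cell viability assay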
Description: SANGER: Inhibition of human NCI-H2171 cell growth in a cell viability assay.

NCI-H2228 = type: functional, cell-based; conditions: Homo sapiens;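 note: growth inhibition of human NCI-H2228 cells, read out by a cell viability assay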
Description: SANGER: Inhibition of human NCI-H2228 cell growth in a cell viability assay.

NCI-H322M = type: functional, cell-based; conditions: Homo sapiens;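 note: cell viability assay measuring inhibition of growth of human NCI-H322M cells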
Description: SANGER: Inhibition of human NCI-H322M cell growth in a cell viability assay.

NCI-H345 = type: functional, cell-based; conditions: Homo sapiens;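 note: growth inhibition of NCI-H345 cells measured with a cell viability assay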
Description: SANGER: Inhibition of human NCI-H345 cell growth in a cell viability assay.

NCI-H520 = type: functional, cell-based; conditions: Homo sapiens;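 note: growth inhibition of NCI-H520 cells, measured by a cell viability assay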
Description: SANGER: Inhibition of human NCI-H520 cell growth in a cell viability assay.

NY = type: functional, cell-based; conditions: Homo sapiens
Description: SANGER: Inhibition of human NY cell growth in a cell viability assay.

OE19 = type: functional, cell-based; conditions: Homo sapiens;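 note: growth inhibition of OE19 cells, measured through a cell viability read-out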
Description: SANGER: Inhibition of human OE19 cell growth in a cell viability assay.

OE33 = type: functional, cell-based; conditions: Homo sapiens;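 note: growth inhibition of human OE33 cells, measured by a cell viability assay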
Description: SANGER: Inhibition of human OE33 cell growth in a cell viability assay.

PANC-08-13 = type: functional, cell-based; conditions: Homo sapiens;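 note: cell growth inhibition, measured with a cell viability assay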
Description: SANGER: Inhibition of human PANC-08-13 cell growth in a cell viability assay.

Panc1005 = type: functional, cell-based; conditions: Homo sapiens;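 note: growth inhibition of human PANC-10-05 cells, measured by a cell viability assay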
Description: SANGER: Inhibition of human PANC-10-05 cell growth in a cell viability assay.

RO82-W-1 = type: functional, cell-based; conditions: Homo sapiens;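 note: growth inhibition of human RO82-W-1 cells, measured with a cell viability assay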
Description: SANGER: Inhibition of human RO82-W-1 cell growth in a cell viability assay.

SCC-25 = type: functional, cell-based; conditions: Homo sapiens;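 note: growth inhibition of SCC-25 cells, measured with a cell viability assay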
Description: SANGER: Inhibition of human SCC-25 cell growth in a cell viability assay.

SK-MES-1 = type: functional, cell-based; conditions: Homo sapiens;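 note: growth inhibition of human SK-MES-1 cells, read out with a cell viability assay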
Description: SANGER: Inhibition of human SK-MES-1 cell growth in a cell viability assay.

SW1783 = type: functional, cell-based; conditions: Homo sapiens;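 note: cell growth inhibition measured with a viability assay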
Description: SANGER: Inhibition of human SW1783 cell growth in a cell viability assay.

T-24 = type: functional, cell-based; conditions: Homo sapiens;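 note: growth inhibition of T-24 cells, read out with a cell viability assay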
Description: SANGER: Inhibition of human T-24 cell growth in a cell viability assay.

CWR22R = type: functional, cell-based; conditions: Homo sapiens, 22Rv1;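 note: growth inhibition of 22Rv1 cells, read out with a cell viability assay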
Description: SANGER: Inhibition of human 22RV1 cell growth in a cell viability assay.

A204 = type: functional, cell-based; conditions: Homo sapiens;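 note: growth inhibition of human A204 cells, read out with a cell viability assay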
Description: SANGER: Inhibition of human A204 cell growth in a cell viability assay.

ABC-1 = type: functional, cell-based; conditions: Homo sapiens;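 note: growth inhibition of human ABC-1 cells, read out by a cell viability assay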
Description: SANGER: Inhibition of human ABC-1 cell growth in a cell viability assay.

BFTC-905 = type: functional, cell-based; conditions: Homo sapiens
Description: SANGER: Inhibition of human BFTC-905 cell growth in a cell viability assay.

BPH-1 = type: functional, cell-based; conditions: Homo sapiens;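 note: cell viability assay measuring growth inhibition of human BPH-1 cells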
Description: SANGER: Inhibition of human BPH-1 cell growth in a cell viability assay.

CAL-148 = type: functional, cell-based; conditions: Homo sapiens
Description: SANGER: Inhibition of human CAL-148 cell growth in a cell viability assay.

CAL-27 = type: functional, cell-based; conditions: Homo sapiens;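 note: Viability-based readout, IC50 reflecting inhibition of CAL-27 cell growth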
Description: SANGER: Inhibition of human CAL-27 cell growth in a cell viability assay.

UACC-62 = type: functional, cell-based; conditions: Homo sapiens;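 note: growth inhibition of human UACC-62 cells, read out by a cell viability assay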
Description: SANGER: Inhibition of human UACC-62 cell growth in a cell viability assay.

UMUC3 = type: functional, cell-based; conditions: Homo sapiens;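 note: growth inhibition of human UM-UC-3 cells, read out with a cell viability assay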
Description: SANGER: Inhibition of human UM-UC-3 cell growth in a cell viability assay.

UMC-11 = type: functional, cell-based; conditions: Homo sapiens;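 note: growth inhibition of UMC-11 cells, read out with a cell viability assay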
Description: SANGER: Inhibition of human UMC-11 cell growth in a cell viability assay.

YT = type: functional, cell-based; conditions: Homo sapiens
Description: SANGER: Inhibition of human YT cell growth in a cell viability assay.

For CC(C)=CC[C@@H](O)C1=CC(=O)c2c(O)ccc(O)c2C1=O [SHIKONIN], the IC50 (COLO-741) was 2690 nM, the IC50 (COR-L105) was 230 nM and the IC50 (Ca9-22) was 581 nM. The IC50 (Capan-2) was 1010 nM, the IC50 (ChaGo-K-1) was 657 nM and the IC50 (D-336MG) was 1750 nM. It also gave an IC50 (DBTRG-05MG) of 611 nM, an IC50 (FaDu) of 1770 nM and an IC50 (FTC-133) of 5740 nM. The IC50 (GAMG) was 1710 nM, the IC50 (GCT) was 1150 nM and the IC50 (HCC1395) was 15700 nM. It also gave an IC50 (HCC1599) of 388 nM, an IC50 (HCC1806) of 1270 nM and an IC50 (HCC1937) of 1660 nM. For the same compound, the IC50 (HGC-27) was 228 nM, the IC50 (HT-1080) was 260 nM and the IC50 (HT1197) was 276 nM. It also gave an IC50 (Hs-578T) of 6220 nM, an IC50 (IST-SL2) of 200 nM and an IC50 (KYSE-180) of 1010 nM. It also gave an IC50 (KYSE-70 cell line) of 2420 nM, an IC50 (LB647-SCLC) of 233 nM and an IC50 (LCLC-103H cell line) of 346 nM. It also gave an IC50 (LCLC-97TM1) of 613 nM, an IC50 (LU-165) of 634 nM and an IC50 (LoVo) of 1340 nM. For the same compound, the IC50 (MC-CAR) was 814 nM, the IC50 (MDA-MB-157) was 637 nM and the IC50 (MHH-ES-1) was 689 nM. It also gave an IC50 (MKN-45) of 608 nM, an IC50 (MKN-7) of 2210 nM and an IC50 (MONO-MAC-6) of 245 nM. It also gave an IC50 (MeWo) of 517 nM, an IC50 (NB12) of 666 nM and an IC50 (NCI-H1563) of 626 nM. The IC50 (NCI-H2171) was 909 nM, the IC50 (NCI-H2228) was 901 nM and the IC50 (NCI-H322M) was > 16000 nM. For the same compound, the IC50 (NCI-H345) was 990 nM, the IC50 (NCI-H520) was 1350 nM and the IC50 (NY) was 1050 nM. For the same compound, the IC50 (OE19) was 807 nM, the IC50 (OE33) was 1810 nM and the IC50 (PANC-08-13) was 10400 nM. For the same compound, the IC50 (Panc1005) was 416 nM, the IC50 (RO82-W-1) was 2840 nM and the IC50 (SCC-25) was 383 nM. For the same compound, the IC50 (SK-MES-1) was 6290 nM, the IC50 (SW1783) was 1070 nM and the IC50 (T-24) was 2460 nM. The IC50 (CWR22R) was 4610 nM, the IC50 (A204) was 127 nM and the IC50 (ABC-1) was 707 nM. For the same compound, the IC50 (BFTC-905) was 284 nM, the IC50 (BPH-1) was 1260 nM and the IC50 (CAL-148) was 677 nM. The IC50 (CAL-27) was > 16000 nM, the IC50 (UACC-62) was 1230 nM and the IC50 (UMUC3) was 967 nM. For the same compound, the IC50 (UMC-11) was > 16000 nM and the IC50 (YT) was 384 nM.
